For four compounds, Activity, IC50 and inhibition results are on record in ChEMBL document CHEMBL1137318, “Dipyridyl thiosemicarbazone chelators with potent and selective antitumor activity form iron complexes with redox activity” (J Med Chem, 2006).

Each structure is given as a SMILES string. Activity calls are given as the source filed them. No cut-off for these calls is given here.

The nature of assay [1]: Increase in Fe(3+)-mediated ascorbate oxidation at IBE of 0.1 relative to control. In kind it is functional.
The nature of assay [2]: Increase in Fe(3+)-mediated ascorbate oxidation at IBE of 1 relative to control. In kind it is functional.
Assay [3] can be described thus: Increase in Fe(3+)-mediated ascorbate oxidation at IBE of 3 relative to control. In kind it is functional.
Assay [4] in a line: Increase in Fe(2+)-mediated hydroxyl radical production measured as hydroxylation of benzoate at IBE of 3 relative to control. In kind it is functional.
The test system of assay [5] is SK-N-MC. In words: Antiproliferative activity against human SK-N-MC cells after 96 hrs by MTT assay. In kind it is functional, cell-based.
A short description of assay [6]: Inhibition of Fe(3+)-mediated ascorbate oxidation at IBE of 0.1 relative to control. In kind it is functional. To be noted: dose or concentration not given here.
A short description of assay [7]: Inhibition of Fe(3+)-mediated ascorbate oxidation at IBE of 1 relative to control. In kind it is functional. To be noted: dose or concentration not given here.
The nature of assay [8]: Inhibition of Fe(3+)-mediated ascorbate oxidation at IBE of 3 relative to control. In kind it is functional. To be noted: dose or concentration not given here.
A short description of assay [9]: Inhibition of hydroxylation of benzoate in presence of Fe(II) at IBE of 1 relative to control. In kind it is functional. The note with it: dose or concentration not given here.
Assay [10] in a line: Inhibition of hydroxylation of benzoate in presence of Fe(II) at IBE of 3 relative to control. In kind it is functional. To be noted: dose or concentration not given here.
The subject of assay [11] is Nucleic Acid. In words: Binding affinity to DNA measured as hypochromicity of UV-vis spectra. In kind it is nucleic-acid assay.
A short description of assay [12]: Increase in Fe(2+)-mediated hydroxyl radical production measured as hydroxylation of benzoate at IBE of 1 relative to control. In kind it is functional.

By IC50 is commonly meant the concentration that gives 50% inhibition. Regarding `CN(C)C(=S)NN=C(c1ccccn1)c1ccccn1`, the result in [1] and in assay [4] was Active. Moreover, the values for the Activity in assay [2] and in assay [3] were 439% and 406%, respectively. The compound further gave an IC50 in [5] of 0.01 µM.
In general, inhibition refers to the share of the control response that was lost under treatment. For the compound `CC(=O)N(O)CCCCCNC(=O)CCC(=O)N(O)CCCCCNC(=O)CCC(=O)N(O)CCCCCN` [DEFEROXAMINE], the inhibition in assay [6] was 79%; in [7], 60%; in assay [8], 59%; in [9], 56%; in assay [10] it was 56%. In assay [5], this compound yielded a half-inhibitory concentration (IC50) of 8.58 µM.
With `COc1cccc2c1C(=O)c1c(O)c3c(c(O)c1C2=O)C[C@@](O)(C(=O)CO)C[C@@H]3O[C@H]1C[C@H](N)[C@H](O)[C@H](C)O1`, in assay [11], the Activity is 36%.
As for `O=C(O)CN(CCN(CC(=O)O)CC(=O)O)CC(=O)O`, the Activity in [2] was 475%; in assay [3], 482%; in assay [4], 343%; in assay [12] it was 309%.
